Assay results reported in PMC6052462, “Oxidation resistance 1 is a novel senolytic target” (Aging Cell, 2018).

Molecular target: T1, OXR1 (endogenous, senescent WI38 cells) (Homo sapiens, UniProt Q8N573)
T1 construct: native protein of human WI38 fibroblasts (senescent)
T1 sequence (Q8N573 1-874): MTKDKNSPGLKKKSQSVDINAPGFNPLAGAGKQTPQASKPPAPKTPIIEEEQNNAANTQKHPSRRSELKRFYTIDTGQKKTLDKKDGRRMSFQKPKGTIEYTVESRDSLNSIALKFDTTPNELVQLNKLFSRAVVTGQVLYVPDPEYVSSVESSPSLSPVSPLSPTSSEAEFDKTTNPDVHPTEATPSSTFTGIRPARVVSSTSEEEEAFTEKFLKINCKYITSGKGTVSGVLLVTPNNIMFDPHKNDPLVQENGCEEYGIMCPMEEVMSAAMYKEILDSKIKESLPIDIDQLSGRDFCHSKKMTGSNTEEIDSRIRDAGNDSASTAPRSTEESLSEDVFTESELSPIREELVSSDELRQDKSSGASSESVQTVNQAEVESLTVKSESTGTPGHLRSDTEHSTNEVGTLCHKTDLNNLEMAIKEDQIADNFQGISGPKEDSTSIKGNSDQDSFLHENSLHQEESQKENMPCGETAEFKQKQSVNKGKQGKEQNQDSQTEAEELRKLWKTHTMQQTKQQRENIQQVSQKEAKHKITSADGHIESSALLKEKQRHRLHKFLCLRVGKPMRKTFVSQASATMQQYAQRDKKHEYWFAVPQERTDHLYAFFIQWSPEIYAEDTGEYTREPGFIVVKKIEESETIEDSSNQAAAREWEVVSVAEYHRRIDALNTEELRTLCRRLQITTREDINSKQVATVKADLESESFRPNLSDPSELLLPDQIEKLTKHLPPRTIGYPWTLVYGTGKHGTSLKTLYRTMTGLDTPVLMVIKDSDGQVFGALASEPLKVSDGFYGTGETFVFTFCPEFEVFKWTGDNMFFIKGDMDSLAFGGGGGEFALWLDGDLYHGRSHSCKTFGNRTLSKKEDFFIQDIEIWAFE
Experiment: click-chemistry pull-down from live cells, LC-MS/MS
Assay type: cell-based
Conditions: labelled compound; 5 µM, 5 h; covalent

C#CCCOc1c(OC)cc(/C=C/C(=O)N2CCC=CC2=O)cc1OC [PL probe, alkyne-labeled piperlongumine]
click-chemistry pull-down from live cells, LC-MS/MS: OXR1 was on the top of the list of the PL‐binding proteins in SCs
